Test results from ChEMBL document CHEMBL1201861, “Genomics of Drug Sensitity in Cancer screening data, Wellcome Trust Sanger Institute”.

Experiments:
Test in all cases: cells
SBC-5 = format: functional, cell-based, Homo sapiens; conditions: Homo sapiens, SBC-5;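 also: cell viability assay read-out, IC50 is the concentration that inhibits growth of the cells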
Description: SANGER: Inhibition of human SBC-5 cell growth in a cell viability assay.

697 = format: functional, cell-based; conditions: Homo sapiens
Description: SANGER: Inhibition of human 697 cell growth in a cell viability assay.

NCI-N87 = format: functional, cell-based, Homo sapiens; conditions: Homo sapiens, NCI-N87;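 also: growth inhibition of human NCI-N87 cells, read out with a cell viability assay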
Description: SANGER: Inhibition of human NCI-N87 cell growth in a cell viability assay.

U-266 = format: functional, cell-based; conditions: Homo sapiens
Description: SANGER: Inhibition of human U-266 cell growth in a cell viability assay.

A2058 = format: functional, cell-based; conditions: Homo sapiens;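 also: reduction of A2058 cell growth, read out with a viability assay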
Description: SANGER: Inhibition of human A2058 cell growth in a cell viability assay.

RO82-W-1 = format: functional, cell-based, Homo sapiens; conditions: Homo sapiens, RO82-W-1;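 also: growth inhibition of human RO82-W-1 cells, measured with a cell viability assay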
Description: SANGER: Inhibition of human RO82-W-1 cell growth in a cell viability assay.

SCC-4 = format: functional, cell-based, Homo sapiens; conditions: Homo sapiens, SCC-4;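 also: growth inhibition of human SCC-4 cells, read out as cell viability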
Description: SANGER: Inhibition of human SCC-4 cell growth in a cell viability assay.

TE-8 = format: functional, cell-based, Homo sapiens; conditions: Homo sapiens, TE-8;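 also: growth inhibition of TE-8 cells, measured with a cell viability readout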
Description: SANGER: Inhibition of human TE-8 cell growth in a cell viability assay.

NCI-H1299 = format: functional, cell-based, Homo sapiens; conditions: Homo sapiens, NCI-H1299;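 also: growth inhibition of human NCI-H1299 cells, read out by a cell viability assay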
Description: SANGER: Inhibition of human NCI-H1299 cell growth in a cell viability assay.

KYSE-140 = format: functional, cell-based, Homo sapiens; conditions: Homo sapiens, KYSE-140;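 also: cell viability assay measuring growth inhibition in human KYSE-140 cells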
Description: SANGER: Inhibition of human KYSE-140 cell growth in a cell viability assay.

MMAC-SF = format: functional, cell-based, Homo sapiens; conditions: Homo sapiens, MMAC-SF;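 also: growth inhibition of human MMAC-SF cells, read out with a cell viability assay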
Description: SANGER: Inhibition of human MMAC-SF cell growth in a cell viability assay.

MHH-NB-11 = format: functional, cell-based, Homo sapiens; conditions: Homo sapiens, MHH-NB-11;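 also: growth inhibition of human MHH-NB-11 cells, read out by a cell viability assay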
Description: SANGER: Inhibition of human MHH-NB-11 cell growth in a cell viability assay.

NCI-H1092 = format: functional, cell-based; conditions: Homo sapiens;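 also: cell growth inhibition measured with a cell viability assay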
Description: SANGER: Inhibition of human NCI-H1092 cell growth in a cell viability assay.

SK-N-DZ = format: functional, cell-based, Homo sapiens; conditions: Homo sapiens, SK-N-DZ;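 also: growth inhibition of the cancer cell line, read out through a viability assay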
Description: SANGER: Inhibition of human SK-N-DZ cell growth in a cell viability assay.

HuCCT-1 = format: functional, cell-based, Homo sapiens, HuCCT1; conditions: Homo sapiens, HuCCT-1;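 also: growth inhibition of HuCCT-1 cells, read out by a cell viability assay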
Description: SANGER: Inhibition of human HuCCT1 cell growth in a cell viability assay.

SW982 = format: functional, cell-based; conditions: Homo sapiens;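 also: growth inhibition of SW982 cells, read out with a cell viability assay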
Description: SANGER: Inhibition of human SW982 cell growth in a cell viability assay.

HCC1395 = format: functional, cell-based, Homo sapiens; conditions: Homo sapiens, HCC1395;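 also: growth inhibition of HCC1395 cells, read out by a cell viability assay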
Description: SANGER: Inhibition of human HCC1395 cell growth in a cell viability assay.

OVCAR-5 = format: functional, cell-based, Homo sapiens; conditions: Homo sapiens, OVCAR-5;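 also: growth inhibition of human OVCAR-5 cells, read out with a cell viability assay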
Description: SANGER: Inhibition of human OVCAR-5 cell growth in a cell viability assay.

RS4-11 = format: functional, cell-based; conditions: Homo sapiens;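 also: growth inhibition of RS4-11 cells, read out by a cell viability assay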
Description: SANGER: Inhibition of human RS4-11 cell growth in a cell viability assay.

GCIY = format: functional, cell-based, Homo sapiens; conditions: Homo sapiens, GCIY;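 also: growth inhibition of the human GCIY cell line, read out by a cell viability assay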
Description: SANGER: Inhibition of human GCIY cell growth in a cell viability assay.

HCC1937 = format: functional, cell-based, Homo sapiens; conditions: Homo sapiens, HCC1937;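 also: growth inhibition measured with a cell viability read-out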
Description: SANGER: Inhibition of human HCC1937 cell growth in a cell viability assay.

GT3TKB = format: functional, cell-based, Homo sapiens; conditions: Homo sapiens, GT3TKB;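 also: growth inhibition of the cell line, read out with a cell viability assay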
Description: SANGER: Inhibition of human GT3TKB cell growth in a cell viability assay.

HPAF-II = format: functional, cell-based, Homo sapiens; conditions: Homo sapiens, HPAF-II;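 also: growth inhibition of HPAF-II cells, read out with a cell viability assay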
Description: SANGER: Inhibition of human HPAF-II cell growth in a cell viability assay.

NCI-H2452 = format: functional, cell-based, Homo sapiens; conditions: Homo sapiens, NCI-H2452;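 also: growth inhibition of NCI-H2452 cells, read out with a cell viability assay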
Description: SANGER: Inhibition of human NCI-H2452 cell growth in a cell viability assay.

MKN-1 = format: functional, cell-based, Homo sapiens; conditions: Homo sapiens, MKN-1;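 also: growth inhibition of human MKN1 cells, read out by a cell viability measurement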
Description: SANGER: Inhibition of human MKN1 cell growth in a cell viability assay.

NCI-H661 = format: functional, cell-based, Homo sapiens; conditions: Homo sapiens, NCI-H661;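 also: cell viability assay read-out, IC50 being the concentration that inhibits growth of the cells by half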
Description: SANGER: Inhibition of human NCI-H661 cell growth in a cell viability assay.

769-P = format: functional, cell-based, Homo sapiens; conditions: Homo sapiens, 769-P
Description: SANGER: Inhibition of human 769-P cell growth in a cell viability assay.

EW-13 = format: functional, cell-based; conditions: Homo sapiens;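 also: growth inhibition of EW-13 cells, read out with a cell viability assay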
Description: SANGER: Inhibition of human EW-13 cell growth in a cell viability assay.

MS-1 = format: functional, cell-based; conditions: Homo sapiens;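 also: growth inhibition of MS-1 cells, read out by cell viability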
Description: SANGER: Inhibition of human MS-1 cell growth in a cell viability assay.

TE-6 = format: functional, cell-based, Homo sapiens; conditions: Homo sapiens, TE-6;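 also: growth inhibition of TE-6 cells, read out with a cell viability assay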
Description: SANGER: Inhibition of human TE-6 cell growth in a cell viability assay.

SCC-15 = format: functional, cell-based, Homo sapiens; conditions: Homo sapiens, SCC-15;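 also: growth inhibition of SCC-15 cells, read out with a cell viability assay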
Description: SANGER: Inhibition of human SCC-15 cell growth in a cell viability assay.

COLO-680N = format: functional, cell-based, Homo sapiens; conditions: Homo sapiens, COLO-680N;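 also: cell viability assay used to measure inhibition of COLO-680N cell growth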
Description: SANGER: Inhibition of human COLO-680N cell growth in a cell viability assay.

PFSK-1 = format: functional, cell-based, Homo sapiens; conditions: Homo sapiens, PFSK-1;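 also: cell viability assay measuring how strongly compounds suppress growth of human PFSK-1 cells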
Description: SANGER: Inhibition of human PFSK-1 cell growth in a cell viability assay.

SBC-1 = format: functional, cell-based; conditions: Homo sapiens;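 also: cell viability assay measuring growth inhibition of the SBC-1 cell line, IC50 being the concentration that halves growth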
Description: SANGER: Inhibition of human SBC-1 cell growth in a cell viability assay.

P12-Ichikawa = format: functional, cell-based; conditions: Homo sapiens
SKG-IIIa = format: functional, cell-based, Homo sapiens; conditions: Homo sapiens, SKG-IIIa;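 also: cell growth inhibition, read out with a cell viability assay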
Description: SANGER: Inhibition of human SKG-IIIa cell growth in a cell viability assay.

CAL-120 = format: functional, cell-based, Homo sapiens; conditions: Homo sapiens, CAL-120;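 also: cell growth inhibition, read out as cell viability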
Description: SANGER: Inhibition of human CAL-120 cell growth in a cell viability assay.

GB-1 = format: functional, cell-based, Homo sapiens; conditions: Homo sapiens, GB-1;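 also: growth of GB-1 cells judged by a viability assay, IC50 marks the concentration inhibiting growth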
Description: SANGER: Inhibition of human GB-1 cell growth in a cell viability assay.

T84 = format: functional, cell-based, Homo sapiens; conditions: Homo sapiens, T84;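 also: growth inhibition measured with a cell viability readout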
Description: SANGER: Inhibition of human T84 cell growth in a cell viability assay.

GOTO = format: functional, cell-based, Homo sapiens; conditions: Homo sapiens, GOTO;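 also: growth inhibition of GOTO cells, read out by a cell viability assay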
Description: SANGER: Inhibition of human GOTO cell growth in a cell viability assay.

CHL-1 = format: functional, cell-based, Homo sapiens; conditions: Homo sapiens, CHL-1;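 also: cell growth inhibition, read out with a cell viability assay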
Description: SANGER: Inhibition of human CHL-1 cell growth in a cell viability assay.

HCC1419 = format: functional, cell-based, Homo sapiens; conditions: Homo sapiens, HCC1419;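 also: growth inhibition of human HCC1419 cells, read out as cell viability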
Description: SANGER: Inhibition of human HCC1419 cell growth in a cell viability assay.

HuP-T4 = format: functional, cell-based, Homo sapiens; conditions: Homo sapiens, HuP-T4;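 also: cell viability assay measuring how much HuP-T4 cell growth is inhibited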
Description: SANGER: Inhibition of human HuP-T4 cell growth in a cell viability assay.

MDA-MB-231 = format: functional, cell-based, Homo sapiens; conditions: Homo sapiens, MDA-MB-231
Description: SANGER: Inhibition of human MDA-MB-231 cell growth in a cell viability assay.

KYSE-270 = format: functional, cell-based, Homo sapiens; conditions: Homo sapiens, KYSE-270;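 also: cell growth inhibition measured with a viability assay in the human KYSE-270 line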
Description: SANGER: Inhibition of human KYSE-270 cell growth in a cell viability assay.

ES3 = format: functional, cell-based, Homo sapiens; conditions: Homo sapiens, ES3;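 also: growth inhibition of ES3 cells, read out with a cell viability assay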
Description: SANGER: Inhibition of human ES3 cell growth in a cell viability assay.

GR-ST = format: functional, cell-based; conditions: Homo sapiens
Description: SANGER: Inhibition of human GR-ST cell growth in a cell viability assay.

CAS-1 = format: functional, cell-based, Homo sapiens; conditions: Homo sapiens, CAS-1;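 also: growth inhibition of CAS-1 cells, measured with a cell viability assay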
Description: SANGER: Inhibition of human CAS-1 cell growth in a cell viability assay.

OAW-28 = format: functional, cell-based, Homo sapiens; conditions: Homo sapiens, OAW-28;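 also: growth inhibition of OAW-28 cells, read out with a cell viability assay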
Description: SANGER: Inhibition of human OAW-28 cell growth in a cell viability assay.

CAL-39 = format: functional, cell-based, Homo sapiens; conditions: Homo sapiens, CAL-39;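 also: cell viability assay measuring growth inhibition of CAL-39 cells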
Description: SANGER: Inhibition of human CAL-39 cell growth in a cell viability assay.

KP-N-YS = format: functional, cell-based; conditions: Homo sapiens;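 also: cell viability assay measuring inhibition of cell line growth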
Description: SANGER: Inhibition of human KP-N-YS cell growth in a cell viability assay.

Measured: IC50

CCOc1nc(NC(=O)Cc2cc(OC)ccc2OC)cc(N)c1C#N
> 10 µM: SBC-5 | 697 | NCI-N87 | U-266 | A2058 | RO82-W-1 | SCC-4 | TE-8 | NCI-H1299 | KYSE-140 | MMAC-SF | MHH-NB-11 | NCI-H1092 | SK-N-DZ | HuCCT-1 | SW982 | HCC1395 | OVCAR-5 | RS4-11 | GCIY | HCC1937 | GT3TKB | HPAF-II | NCI-H2452 | MKN-1 | NCI-H661 | 769-P | EW-13 | MS-1 | TE-6 | SCC-15 | COLO-680N | PFSK-1 | SBC-1 | P12-Ichikawa | SKG-IIIa | CAL-120 | GB-1 | T84 | GOTO | CHL-1 | HCC1419 | HuP-T4 | MDA-MB-231 | KYSE-270 | ES3 | GR-ST | CAS-1 | OAW-28 | CAL-39 | KP-N-YS

CC(=O)O[C@@H]1[C@@H](OC(C)=O)[C@@H](O)[C@H](Oc2c(-c3ccc(O)cc3)oc3cc(O)cc(O)c3c2=O)O[C@H]1C
> 10 µM: SBC-5 | 697 | NCI-N87 | U-266 | A2058 | RO82-W-1 | SCC-4 | TE-8 | NCI-H1299 | KYSE-140 | MMAC-SF | MHH-NB-11 | NCI-H1092 | SK-N-DZ | HuCCT-1 | SW982 | HCC1395 | OVCAR-5 | RS4-11 | GCIY | HCC1937 | GT3TKB | HPAF-II | NCI-H2452 | MKN-1 | NCI-H661 | 769-P | EW-13 | MS-1 | TE-6 | SCC-15 | COLO-680N | PFSK-1 | SBC-1 | P12-Ichikawa | SKG-IIIa | CAL-120 | GB-1 | T84 | GOTO | CHL-1 | HCC1419 | HuP-T4 | MDA-MB-231 | KYSE-270 | ES3 | GR-ST | CAS-1 | OAW-28 | CAL-39 | KP-N-YS

O=c1cc(-c2cccc3c2Sc2ccccc2S3)oc(N2CCOCC2)c1 [KU-55933]
> 10 µM: SBC-5 | 697 | NCI-N87 | U-266 | A2058 | RO82-W-1 | SCC-4 | TE-8 | NCI-H1299 | KYSE-140 | MMAC-SF | MHH-NB-11 | NCI-H1092 | SK-N-DZ | HuCCT-1 | SW982 | HCC1395 | OVCAR-5 | RS4-11 | GCIY | HCC1937 | GT3TKB | HPAF-II | NCI-H2452 | MKN-1 | NCI-H661 | 769-P | EW-13 | MS-1 | TE-6 | SCC-15 | COLO-680N | PFSK-1 | P12-Ichikawa | SKG-IIIa | CAL-120 | GB-1 | T84 | GOTO | CHL-1 | HCC1419 | HuP-T4 | MDA-MB-231 | KYSE-270 | ES3 | GR-ST | CAS-1 | OAW-28 | CAL-39 | KP-N-YS
